The structures appear in SMILES notation.

One experiment deals with T1, P70S6K (T412E mutant, Millipore) (Homo sapiens, UniProt P23443, T412E).
T1 construct: purchased Millipore
T1 sequence (P23443 whole entry T412E): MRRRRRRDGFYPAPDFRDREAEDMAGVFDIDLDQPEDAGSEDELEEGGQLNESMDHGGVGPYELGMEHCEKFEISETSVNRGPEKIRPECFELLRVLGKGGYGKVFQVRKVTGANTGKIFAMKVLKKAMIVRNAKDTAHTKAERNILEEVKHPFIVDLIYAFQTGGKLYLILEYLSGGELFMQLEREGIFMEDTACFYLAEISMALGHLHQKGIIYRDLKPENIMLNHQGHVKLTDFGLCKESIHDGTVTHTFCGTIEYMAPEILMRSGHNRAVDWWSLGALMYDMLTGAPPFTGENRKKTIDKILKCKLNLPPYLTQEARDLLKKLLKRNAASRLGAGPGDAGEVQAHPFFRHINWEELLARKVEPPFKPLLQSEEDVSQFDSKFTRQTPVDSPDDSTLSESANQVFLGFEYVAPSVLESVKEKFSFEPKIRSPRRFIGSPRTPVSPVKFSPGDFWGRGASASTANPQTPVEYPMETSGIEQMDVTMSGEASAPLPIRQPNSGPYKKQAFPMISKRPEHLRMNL
The experiment can be described thus: p70S6K enzyme assay. In kind it is biochemical. As to conditions: Table 1; 3 nM P70S6K, 24 μM ATP, 90 min at 25° C.; read-out: p70S6K inhibition (IC50). In short, it runs like this:
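T412E-mutant P70S6K (3 nM) with 24 μM ATP and 1 μM FITC-AHA-AKRRRLSSLRA-OH S6-derived peptide in 100 mM Hepes pH 7.5, 5 mM MgCl2, 1 mM DTT, 0.015% Brij; 90 min at 25° C, EDTA stop. Phosphorylated product and substrate peptide separated and quantified by microfluidic capillary electrophoresis (Caliper LabChip 3000).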
Consider `O=C(NCc1cccc(Cl)c1)c1occc1Nc1ncnc2[nH]ccc12` [Example 141, 3-(7H-Pyrrolo[2,3-d]pyrimidin-4-ylamino)-furan-2-carboxylic acid 3-chloro-benzylamide], for which the concentration for half-maximal inhibition (IC50) is under 100 nM. Consider `O=C(NCCc1cccc(F)c1)c1sccc1Nc1ncnc2[nH]ccc12` [Example 142, 3-(7H-Pyrrolo[2,3-d]pyrimidin-4-ylamino)-thiophene-2-carboxylic acid [2-(3-fluoro-phenyl)-ethyl]-amide], for which the IC50 is under 100 nM. With `O=C(NCCc1ccccc1)c1sccc1Nc1ncnc2[nH]ccc12` [Example 143, 3-(7H-Pyrrolo[2,3-d]pyrimidin-4-ylamino)-thiophene-2-carboxylic acid phenethyl-amide], the IC50 was under 100 nM. Same read-out and setting: under `O=C(NCCc1cccc(Cl)c1)c1sccc1Nc1ncnc2[nH]ccc12` [Example 144, 3-(7H-Pyrrolo[2,3-d]pyrimidin-4-ylamino)-thiophene-2-carboxylic acid [2-(3-chloro-phenyl)-ethyl]-amide] stands under 100 nM. `O=C(NCCc1ccc(F)cc1)c1sccc1Nc1ncnc2[nH]ccc12` [Example 145, 3-(7H-Pyrrolo[2,3-d]pyrimidin-4-ylamino)-thiophene-2-carboxylic acid [2-(4-fluoro-phenyl)-ethyl]-amide]: the half-maximal inhibitory concentration (IC50) is under 100 nM.

With `O=C(NCCc1ccc(Br)cc1)c1sccc1Nc1ncnc2[nH]ccc12` [Example 146, 3-(7H-Pyrrolo[2,3-d]pyrimidin-4-ylamino)-thiophene-2-carboxylic acid [2-(4-bromo-phenyl)-ethyl]-amide], the IC50 is under 100 nM. The same measure, in the same setting: the same measure for `Cc1ccccc1CCNC(=O)c1sccc1Nc1ncnc2[nH]ccc12` [Example 147, 3-(7H-Pyrrolo[2,3-d]pyrimidin-4-ylamino)-thiophene-2-carboxylic acid [2-o-tolyl-ethyl)-amide]: under 100 nM; for `O=C(NCCNCc1ccccc1)c1sccc1Nc1ncnc2[nH]ccc12` [Example 148, 3-(7H-Pyrrolo[2,3-d]pyrimidin-4-ylamino)-thiophene-2-carboxylic acid [2-2-benzylamino-ethyl)-amide]: under 100 nM. Still for that read-out and setting: the same measure for `O=C(NCCc1ccc(F)cc1)c1sccc1Nc1ccnc2[nH]ccc12` [Example 150, 3-(1H-Pyrrolo[2,3-b]pyridin-4-ylamino)-thiophene-2-carboxylic acid [2-(4-fluoro-phenyl)-ethyl]-amide]: under 100 nM. The same measure, in the same setting: under `O=C(NC1CCCNC1)c1sccc1Nc1ncnc2[nH]ccc12` (stereo not drawn) [Example 151, 3-(7H-Pyrrolo[2,3-d]pyrimidin-4-ylamino)-thiophene-2-carboxylic acid piperidin-3-ylamide] stands under 100 nM. Consider `Cc1cc(Nc2ncnc3[nH]ccc23)c(C(=O)NCc2cccc(Cl)c2)s1` [Example 152, 5-Methyl-3-(7H-pyrrolo[2,3-d]pyrimidin-4-ylamino)-thiophene-2-carboxylic acid 3-chloro-benzylamide], for which the half-maximal inhibitory concentration (IC50) is under 100 nM. Turning to `CNCCNC(=O)c1sccc1Nc1ncnc2[nH]ccc12` [Example 153, 3-(7H-Pyrrolo[2,3-d]pyrimidin-4-ylamino)-thiophene-2-carboxylic acid (2-methylamino-ethyl)-amide], the IC50 was in the range of 100 to 1000 nM.

The experiment is the same for the next values; noted with them: class symbol; 3 nM P70S6K, 24 μM ATP; read-out: IC50 (p70S6K).
In the case of `N#CC[C@@H](NC(=O)c1sccc1Nc1ccnc2[nH]ccc12)c1ccccc1` [Example 115, 3-(1H-Pyrrolo[2,3-b]pyridin-4-ylamino)-thiophene-2-carboxylic acid ((R)-2-cyano-1-phenyl-ethyl)-amide], the IC50 is under 100 nM.

On to `N#CC(NC(=O)c1ccsc1Nc1ccnc2[nH]ccc12)c1ccccc1` (stereo not drawn) [Example 116, 2-(1H-Pyrrolo[2,3-b]pyridin-4-ylamino)-thiophene-3-carboxylic acid (cyano-phenyl-methyl)-amide], for which the IC50 was under 100 nM. Take `CC(C)C[C@@H](CO)NC(=O)c1ccsc1Nc1ccnc2[nH]ccc12` [Example 117, 2-(1H-Pyrrolo[2,3-b]pyridin-4-ylamino)-thiophene-3-carboxylic acid ((S)-1-hydroxymethyl-3-methyl-butyl)-amide]: the IC50 was under 100 nM. Still for that read-out and setting: the same measure for `O=C(N[C@H](CO)Cc1ccccc1)c1ccsc1Nc1ccnc2[nH]ccc12` [Example 118, 2-(1H-Pyrrolo[2,3-b]pyridin-4-ylamino)-thiophene-3-carboxylic acid ((S)-1-hydroxymethyl-2-phenyl-ethyl)-amide]: under 100 nM.

Turning to `O=C(N[C@@H](CO)Cc1ccccc1)c1ccsc1Nc1ccnc2[nH]ccc12` [Example 119, 2-(1H-Pyrrolo[2,3-b]pyridin-4-ylamino)-thiophene-3-carboxylic acid ((R)-1-hydroxymethyl-2-phenyl-ethyl)-amide], the half-inhibitory concentration (IC50) was in the range of 100 to 1000 nM. In the case of `NC(=O)C[C@@H](NC(=O)c1sccc1Nc1ccnc2[nH]ccc12)c1ccccc1` [Example 120, 3-(1H-Pyrrolo[2,3-b]pyridin-4-ylamino)-thiophene-2-carboxylic acid ((R)-2-carbamoyl-1-phenyl-ethyl)-amide], the IC50 was under 100 nM. Take `Cc1ccc(C(CN)NC(=O)c2ccsc2Nc2ccnc3[nH]ccc23)cc1` (stereo not drawn) [Example 126, 2-(1H-Pyrrolo[2,3-b]pyridin-4-ylamino)-thiophene-3-carboxylic acid (2-amino-1-p-tolyl-ethyl)-amide]: the 50% inhibitory concentration (IC50) was under 100 nM. Same read-out and setting: under `COc1cccc(C(CN)NC(=O)c2ccsc2Nc2ccnc3[nH]ccc23)c1` (stereo not drawn) [Example 127, 2-(1H-Pyrrolo[2,3-b]pyridin-4-ylamino)-thiophene-3-carboxylic acid [2-amino-1-(3-methoxy-phenyl)-ethyl]-amide] stands under 100 nM.

Consider `NCC(NC(=O)c1ccsc1Nc1ccnc2[nH]ccc12)c1ccc(Cl)c(Cl)c1` (stereo not drawn) [Example 128, 2-(1H-Pyrrolo[2,3-b]pyridin-4-ylamino)-thiophene-3-carboxylic acid [2-amino-1-(3,4-dichloro-phenyl)-ethyl]-amide], for which the IC50 is under 100 nM. As for `O=C(Nc1cccc(CNC(=O)c2sccc2Nc2ccnc3[nH]ccc23)c1)c1ccnc(Cl)c1` [Example 129, 2-Chloro-N-[3-({[3-(1H-pyrrolo[2,3-b]pyridin-4-ylamino)-thiophene-2-carbonyl]-amino}-methyl)-phenyl]-isonicotinamide], the IC50 is under 100 nM. On the same count and under the same terms, the same measure for `NCC(NC(=O)c1ccsc1Nc1ccnc2[nH]ccc12)c1cccc(Cl)c1` (stereo not drawn) [Example 130, 2-(1H-Pyrrolo[2,3-b]pyridin-4-ylamino)-thiophene-3-carboxylic acid [2-amino-1-(3-chloro-phenyl)-ethyl]-amide]: under 100 nM.

In the case of `CC(NCCNC(=O)c1sccc1Nc1ccnc2[nH]ccc12)c1ccccc1` (stereo not drawn) [Example 131, 3-(1H-Pyrrolo[2,3-b]pyridin-4-ylamino)-thiophene-2-carboxylic acid [2-(1-phenyl-ethylamino)-ethyl]-amide], the half-inhibitory concentration (IC50) is under 100 nM. For the compound `NCC(NC(=O)c1sccc1Nc1ccnc2[nH]ccc12)c1ccc(C(F)(F)F)cc1` (stereo not drawn) [Example 132, 3-(1H-Pyrrolo[2,3-b]pyridin-4-ylamino)-thiophene-2-carboxylic acid [2-amino-1-(4-trifluoromethyl-phenyl)-ethyl]-amide], the IC50 was under 100 nM. For the compound `NCC(NC(=O)c1ccsc1Nc1ccnc2[nH]ccc12)c1ccc(C(F)(F)F)cc1` (stereo not drawn) [Example 133, 2-(1H-Pyrrolo[2,3-b]pyridin-4-ylamino)-thiophene-3-carboxylic acid [2-amino-1-(4-trifluoromethyl-phenyl)-ethyl]-amide], the half-inhibitory concentration (IC50) was under 100 nM.

Turning to `O=C(N[C@H](CN1C(=O)c2ccccc2C1=O)c1ccccc1)c1ccsc1Nc1ccnc2[nH]ccc12` [Example 134, (S)-[3-(1H-Pyrrolo[2,3-b]pyridin-4-ylamino)-thiophene-2-carboxylic acid[2-(1,3-dioxo-1,3-dihydro-isoindol-2-yl)-1-phenyl-ethyl]-amide]], the half-maximal inhibitory concentration (IC50) was under 100 nM. As for `O=C(N[C@H](CN1C(=O)c2ccccc2C1=O)c1ccccc1)c1sccc1Nc1ccnc2[nH]ccc12` [Example 135, (S)-2-(1H-Pyrrolo[2,3-b]pyridin-4-ylamino)-thiophene-3-carboxylic acid[2-(1,3-dioxo-1,3-dihydro-isoindol-2-yl)-1-phenyl-ethyl]-amide], the IC50 was under 100 nM.

With `Cc1ccc(CNCCNC(=O)c2sccc2Nc2ccnc3[nH]ccc23)cc1` [Example 136, 3-(1H-Pyrrolo[2,3-b]pyridin-4-ylamino)-thiophene-2-carboxylic acid [2-(4-methyl-benzylamino)-ethyl]-amide], the 50% inhibitory concentration (IC50) was under 100 nM. Consider `COc1ccc(CNCCNC(=O)c2sccc2Nc2ccnc3[nH]ccc23)cc1Cl` [Example 137, 3-(1H-Pyrrolo[2,3-b]pyridin-4-ylamino)-thiophene-2-carboxylic acid [2-(3-chloro-4-methoxy-benzylamino)-ethyl]-amide], for which the IC50 was under 100 nM. Still for that read-out and setting: under `COC(=O)CNC(=O)c1sccc1Nc1ccnc2[nH]ccc12` [Example 138, {[3-(1H-Pyrrolo[2,3-b]pyridin-4-ylamino)-thiophene-2-carbonyl]-amino}-acetic acid methyl ester] stands 100 to 1000 nM. Regarding `N#CC[C@@H](NC(=O)c1ccsc1Nc1ccnc2[nH]ccc12)c1ccccc1` [Example 139, 2-(1H-Pyrrolo[2,3-b]pyridin-4-ylamino)-thiophene-3-carboxylic acid ((R)-2-cyano-1-phenyl-ethyl)-amide], the IC50 was under 100 nM.

Take `NC[C@@H](NC(=O)c1ccsc1Nc1ccnc2[nH]ccc12)c1ccccc1` [Example 140, 2-(1H-Pyrrolo[2,3-b]pyridin-4-ylamino)-thiophene-3-carboxylic acid ((S)-2-amino-1-phenyl-ethyl)-amide]: the half-inhibitory concentration (IC50) is under 100 nM.

By IC50 is commonly meant the concentration needed to halve the response being measured.

The record behind these values is patent US9023847B2, “Azaheterocyclic compounds” (Merck Patent GmbH, priority 2009, dated 2015).
